In patent US20230099293A1, “OGA INHIBITOR COMPOUNDS” (priority 2019, published 2023):

Assays:
[1] = target: T1, recombinant human Meningioma Expressed Antigen 5 (MGEA5), also referred to as O-GlcNAcase (OGA) (Homo sapiens, UniProt O60502); test: OGA biochemical assay (inhibition of FM-GlcNAc hydrolysis, fluorescence); details: for IC50: Enzymatic hOGA, pIC50, Table 5, full length OGA 2 nM, FM-GlcNAc 100 uM, 6 h at room temperature; for Emax: read-out: Enzymatic Emax (%)
T1 construct: Full length OGA enzyme was purchased at OriGene (cat #TP322411); purchased OriGene TP322411
T1 sequence (O60502 1-916): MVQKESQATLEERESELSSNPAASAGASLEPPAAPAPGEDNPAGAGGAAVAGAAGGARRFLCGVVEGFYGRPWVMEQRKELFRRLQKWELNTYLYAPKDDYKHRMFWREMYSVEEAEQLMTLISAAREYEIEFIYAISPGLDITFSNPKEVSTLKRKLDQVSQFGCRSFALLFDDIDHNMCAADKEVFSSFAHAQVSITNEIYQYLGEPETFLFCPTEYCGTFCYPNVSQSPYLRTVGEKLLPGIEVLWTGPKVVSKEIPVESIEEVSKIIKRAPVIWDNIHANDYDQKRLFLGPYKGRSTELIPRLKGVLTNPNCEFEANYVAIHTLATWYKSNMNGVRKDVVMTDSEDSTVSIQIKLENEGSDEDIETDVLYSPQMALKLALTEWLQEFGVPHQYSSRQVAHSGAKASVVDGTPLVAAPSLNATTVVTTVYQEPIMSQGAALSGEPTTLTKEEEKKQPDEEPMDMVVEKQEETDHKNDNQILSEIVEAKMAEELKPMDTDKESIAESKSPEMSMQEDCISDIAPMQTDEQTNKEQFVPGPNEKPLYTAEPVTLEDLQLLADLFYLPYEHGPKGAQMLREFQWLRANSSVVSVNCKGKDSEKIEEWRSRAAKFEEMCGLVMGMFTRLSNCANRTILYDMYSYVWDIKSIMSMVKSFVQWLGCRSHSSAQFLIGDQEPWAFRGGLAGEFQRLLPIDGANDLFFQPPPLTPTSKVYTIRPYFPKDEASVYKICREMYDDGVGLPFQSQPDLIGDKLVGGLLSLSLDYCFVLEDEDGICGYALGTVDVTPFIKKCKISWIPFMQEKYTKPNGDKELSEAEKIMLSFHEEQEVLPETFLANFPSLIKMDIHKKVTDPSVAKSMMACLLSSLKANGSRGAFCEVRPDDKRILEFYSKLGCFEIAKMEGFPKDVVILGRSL
Procedure: The hydrolysis FM-GlcNAc (Marker Gene technologies, cat #M1485) results in the formation of β-D-N-glucosamineacetate and fluorescein. The fluorescence of the latter can be measured at excitation wavelength 485 nm and emission wavelength 538 nm. An increase in enzyme activity results in an increase in fluorescence signal. Full length OGA enzyme was purchased at OriGene (cat #TP322411). The enzyme was stored in 25 mM Tris.HCl, pH 7.3, 100 mM glycine, 10% glycerol at −20° C. […] The assay was performed in 200 mM Citrate/phosphate buffer supplemented with 0.005% Tween-20. 35.6 g Na2HIPO42H2O (Sigma, #C0759) were dissolved in 1 L water to obtain a 200 mM solution. […] The buffer to stop the reaction consists of a 500 mM Carbonate buffer, pH 11.0. […] OGA was used at a 2 nM concentration and FM-GlcNAc at a 100 uM final concentration. Dilutions were prepared in assay buffer.
Plates were pre-incubated for 60 min at room temperature and then 2 μl FM-GlcNAc substrate mix added. […] Plates were briefly centrifuged for 1 min at 1000 rpm and incubate at room temperature for 6 h. To stop the reaction 5 μl STOP buffer were added and plates centrifuge again 1 min at 1000 rpm. Fluorescence was quantified in the Thermo Scientific Fluoroskan Ascent or the PerkinElmer EnVision with excitation wavelength 485 nm and emission wavelength 538 nm.
For analysis a best-fit curve is fitted by a minimum sum of squares method. From this an IC50 value and Hill coefficient was obtained. High control (no inhibitor) and low control (saturating concentrations of standard inhibitor) were used to define the minimum and maximum values.

[2] = target: T2, hOGA (Homo sapiens, UniProt O60502); test: OGA cellular assay (ICC detection of O-GlcNAcylated proteins in HEK293 cells inducible for P301L mutant human Tau); assay type: cell-based; parameters: Emax: dose or concentration left out as unconfirmed; details: for EC50: Cellular hOGA, pEC50, Table 5, HEK293 P301L Tau cells, 6 hours incubation, O-GlcNAcylation readout; for Emax: HEK293, read-out: Cellular Emax (%)
T2 construct: endogenous in cells; host or cells: HEK293 cells inducible for P301L mutant human Tau (isoform 2N4R)
T2 sequence (O60502 1-916): T1 sequence (O60502 1-916)
Procedure: HEK293 cells inducible for P301L mutant human Tau (isoform 2N4R) were established at Janssen. Thiamet-G was used for both plate validation (high control) and as reference compound (reference EC50 assay validation). OGA inhibition is evaluated through the immunocytochemical (ICC) detection of O-GlcNAcylated proteins by the use of a monoclonal antibody (CTD110.6; Cell Signaling, #9875) detecting O-GlcNAcylated residues as previously described (Dorfmueller et al. 2010 Chemistry & biology, 17:1250). Inhibition of OGA will result in an increase of O-GlcNAcylated protein levels resulting in an increased signal in the experiment. Cell nuclei are stained with Hoechst to give a cell culture quality control and a rough estimate of immediate compounds toxicity, if any. ICC pictures are imaged with a Perkin Elmer Opera Phenix plate microscope and quantified with the provided software Perkin Elmer Harmony 4.1.
Cells were propagated in DMEM high Glucose (Sigma, #D5796) following standard procedures. 2 days before the cell assay cells are split, counted and seeded in Poly-D-Lysine (PDL) coated 96-wells (Greiner, #655946) plate at a cell density of 12,000 cells per cm^2 (4,000 cells per well) in 100 μl of Assay Medium (Low Glucose medium is used to reduce basal levels of GlcNAcylation) (Park et al. 2014 The Journal of biological chemistry 289:13519). At the day of compound test medium from assay plates was removed and replenished with 90 μl of fresh Assay Medium. 10 μl of compounds at a 10 fold final concentration were added to the wells. Plates were centrifuged shortly before incubation in the cell incubator for 6 hours. DMSO concentration was set to 0.2%. Medium is discarded by applying vacuum. For staining of cells medium was removed and cells washed once with 100 μl D-PBS (Sigma, #D8537). From next step onwards unless other stated assay volume was always 50 μl and incubation was performed without agitation and at room temperature. Cells were fixed in 50 μl of a 4% paraformaldehyde (PFA, Alpha aesar, #043368) PBS solution for 15 minutes at room temperature. […] Before analysis samples were washed 2 times manually for 5 minutes in ICC base buffer.
Imaging is performed using Perkin Elmer Phenix Opera using a water 20× objective and recording 9 fields per well. Intensity readout at 488 nm is used as a measure of O-GlcNAcylation level of total proteins in wells. To assess potential toxicity of compounds nuclei were counted using the Hoechst staining. IC50-values are calculated using parametric non-linear regression model fitting. As a maximum inhibition Thiamet Gat a 200 uM concentration is present on each plate. In addition, a concentration response of Thiamet G is calculated on each plate.

| Structure (SMILES) | IC50 [1] [nM] | Emax [1] [%] | EC50 [2] [nM] | Emax [2] [%] | melting point [°C] |
| --- | --- | --- | --- | --- | --- |
| Cc1cc(OC(F)(F)F)cc(Cl)c1Nc1nccc2c1ncn2CC(=O)N(C)C [Compound 16] | 13.5 | 101 | 316 | 66 | 182.81 |
| CN(C)C(=O)Cn1cnc2c(Nc3c(Cl)cc(C(F)(F)F)cc3Cl)nccc21 [Compound 17] | 16.2 | 99 | 316 | 77 | 238.4 |
| Cc1ccc(C(F)(F)F)c(C)c1Nc1nccc2c1ncn2CC(=O)N(C)C [Compound 18] | 16.2 | 99 | 631 | 56 | 250 |
| Cc1cc(C)c(Nc2nccc3c2ncn3CC(=O)N(C)C)c(C)c1 [Compound 19] | 20 | 98 | 537 | 62 | 270.2 |
| Cc1cc(F)cc(C)c1Nc1nccc2c1ncn2CC(=O)N(C)C [Compound 20] | 18.6 | 98 | 170 | 83 | 216.7 |
| CN(C)C(=O)Cn1cnc2c(Nc3c(Cl)cc(F)cc3Cl)nccc21 [Compound 21] | 30.9 | 95 | 123 | 69 | 243.4 |
| Cc1cc(-c2cnn(C)c2)cc(C(C)C)c1Nc1nccc2c1ncn2CC(=O)N(C)C [Compound 22] | 41.7 | 98 | > 1000 | 31 | 234.4 |
| Cc1cc(C(F)(F)F)nc(C)c1Nc1nccc2c1ncn2CC(=O)N(C)C [Compound 23] | 45.7 | 99 | 1020 | 51 | 233.3 |
| CN(C)C(=O)Cn1cnc2c(Nc3c(Cl)cc(F)cc3C(F)(F)F)nccc21 [Compound 24] | 45.7 | 96 | 398 | 82 | 219.9 |
| Cc1cc(C(F)(F)F)cc(F)c1Nc1nccc2c1ncn2CC(=O)N(C)C [Compound 25] | 135 | 96 | > 1000 | 29 | 226.6 |
| Cc1nccc(C(F)F)c1Nc1nccc2c1ncn2CC(=O)N(C)C [Compound 27] | 372 | 89 | > 1000 | 18 | 216.6 |
| CN(C)C(=O)Cn1cnc2c(Nc3ccc(F)cc3C(F)(F)F)nccc21 [Compound 29] | 1000 | 100 | > 200 | 2 | 246.7 |
| Cc1cc2c(ncn2CC(=O)N(C)C)c(Nc2c(C)cc(C(F)(F)F)cc2C)n1 [Compound 30] | 5890 | 55 | > 1000 | 12 | 188.2 |
| CC(C)c1cc(C(F)(F)F)cc(F)c1Nc1nccc2c1ncn2CC(=O)N(C)C [Compound 31] | 87.1 | 104 | > 1000 | 36 | 191.4 |
| Cc1nn(-c2ccc(F)cn2)c(C)c1Nc1nccc2c1ncn2CC(=O)N(C)C [Compound 32] | 174 | 100 | > 1000 | 34 | 256.6 |
| Cc1nn(-c2cccc(C#N)c2)c(C)c1Nc1nccc2c1ncn2CC(=O)N(C)C [Compound 33] | 20.4 | 97 | 479 | 63 | 239.9 |
| Cc1nn(-c2cccc(F)c2)c(C)c1Nc1nccc2c1ncn2CC(=O)N(C)C [Compound 34] | 36.3 | 99 | 562 | 54 | 181.5 |
| Cc1cc(C(F)(F)F)cc(C)c1Nc1ncc(F)c2c1ncn2CC(=O)N(C)C [Compound 35] | 178 | 96 | > 1000 | 25 | 236.7 |
| COc1cccc(-n2nc(C)c(Nc3nccc4c3ncn4CC(=O)N(C)C)c2C)c1 [Compound 36] | 29.5 | 101 | 603 | 55 | 179.7 |
| CC(=O)n1nc(C)c(Nc2nccc3c2ncn3CC(=O)N(C)C)c1C [Compound 37] | > 10000 | 2 | > 1000 | 8 | 175.4 |
| Cc1n[nH]c(C)c1Nc1nccc2c1ncn2CC(=O)N(C)C [Compound 38] | 912 | 90 | > 1000 | 6 | 283.5 |
| Cc1c(C(F)(F)F)nn(C)c1Nc1nccc2c1ncn2CC(=O)N(C)C [Compound 39] | 631 | 94 | > 1000 | 12 | 240 |
| Cc1c(-c2cccc(F)c2)nn(C)c1Nc1nccc2c1ncn2CC(=O)N(C)C [Compound 40] | 105 | 102 | > 1000 | 27 | 230 |
| Cc1nn(-c2ccccc2)c(C)c1Nc1nccc2c1ncn2CC(=O)N(C)C [Compound 41] | 28.2 | 95 | > 1000 | 44 | 126.3 |
